# Results published in the CheMixHub ionic liquid set.
# ± gives the uncertainty stated by the source.
# Experiment: xn = mol fraction of the nth substance listed
# Conditions: 100 kPa
compound,measurement,setting,value
CCCCC[N+](CCCCC)(CCCCC)CCCCC.O=[N+]([O-])[O-] + CCCCCCCCCCCC[N+](C)(C)C.[Br-] + O,viscosity,"293.15 K, x2 = 5.424e-05, x1 = 0.0001802",1.045 ± 0.029 mPa·s
same,viscosity,"293.15 K, x2 = 0.0001085, x1 = 0.0001801",1.046 ± 0.029 mPa·s
same,viscosity,"293.15 K, x2 = 0.0001627, x1 = 0.0001801",1.048 ± 0.029 mPa·s
same,viscosity,"293.15 K, x2 = 0.0002169, x1 = 0.0001801",1.049 ± 0.029 mPa·s
same,viscosity,"293.15 K, x2 = 0.0002712, x1 = 0.0001801",1.05 ± 0.029 mPa·s
same,viscosity,"293.15 K, x2 = 0.0003254, x1 = 0.0001801",1.051 ± 0.029 mPa·s
same,viscosity,"293.15 K, x2 = 0.0003796, x1 = 0.0001801",1.052 ± 0.029 mPa·s
same,viscosity,"293.15 K, x2 = 0.0004338, x1 = 0.0001801",1.052 ± 0.029 mPa·s
same,viscosity,"293.15 K, x2 = 0.000488, x1 = 0.0001801",1.052 ± 0.029 mPa·s
same,viscosity,"293.15 K, x2 = 0.0005422, x1 = 0.0001801",1.052 ± 0.029 mPa·s
same,viscosity,"298.15 K, x2 = 5.424e-05, x1 = 0.0001802",0.929 ± 0.029 mPa·s
same,viscosity,"298.15 K, x2 = 0.0001085, x1 = 0.0001801",0.931 ± 0.029 mPa·s
same,viscosity,"298.15 K, x2 = 0.0001627, x1 = 0.0001801",0.932 ± 0.029 mPa·s
same,viscosity,"298.15 K, x2 = 0.0002169, x1 = 0.0001801",0.933 ± 0.029 mPa·s
same,viscosity,"298.15 K, x2 = 0.0002712, x1 = 0.0001801",0.933 ± 0.029 mPa·s
same,viscosity,"298.15 K, x2 = 0.0003254, x1 = 0.0001801",0.934 ± 0.029 mPa·s
same,viscosity,"298.15 K, x2 = 0.0003796, x1 = 0.0001801",0.934 ± 0.029 mPa·s
same,viscosity,"298.15 K, x2 = 0.0004338, x1 = 0.0001801",0.934 ± 0.029 mPa·s
same,viscosity,"298.15 K, x2 = 0.000488, x1 = 0.0001801",0.935 ± 0.029 mPa·s
same,viscosity,"298.15 K, x2 = 0.0005422, x1 = 0.0001801",0.935 ± 0.029 mPa·s
same,viscosity,"303.15 K, x2 = 5.424e-05, x1 = 0.0001802",0.825 ± 0.028 mPa·s
same,viscosity,"303.15 K, x2 = 0.0001085, x1 = 0.0001801",0.825 ± 0.028 mPa·s
same,viscosity,"303.15 K, x2 = 0.0001627, x1 = 0.0001801",0.825 ± 0.028 mPa·s
same,viscosity,"303.15 K, x2 = 0.0002169, x1 = 0.0001801",0.825 ± 0.028 mPa·s
same,viscosity,"303.15 K, x2 = 0.0002712, x1 = 0.0001801",0.826 ± 0.028 mPa·s
same,viscosity,"303.15 K, x2 = 0.0003254, x1 = 0.0001801",0.826 ± 0.028 mPa·s
same,viscosity,"303.15 K, x2 = 0.0003796, x1 = 0.0001801",0.827 ± 0.028 mPa·s
same,viscosity,"303.15 K, x2 = 0.0004338, x1 = 0.0001801",0.827 ± 0.028 mPa·s
same,viscosity,"303.15 K, x2 = 0.000488, x1 = 0.0001801",0.827 ± 0.028 mPa·s
same,viscosity,"303.15 K, x2 = 0.0005422, x1 = 0.0001801",0.828 ± 0.028 mPa·s
same,viscosity,"308.15 K, x2 = 5.424e-05, x1 = 0.0001802",0.735 ± 0.028 mPa·s
same,viscosity,"308.15 K, x2 = 0.0001085, x1 = 0.0001801",0.736 ± 0.028 mPa·s
same,viscosity,"308.15 K, x2 = 0.0001627, x1 = 0.0001801",0.736 ± 0.028 mPa·s
same,viscosity,"308.15 K, x2 = 0.0002169, x1 = 0.0001801",0.736 ± 0.028 mPa·s
same,viscosity,"308.15 K, x2 = 0.0002712, x1 = 0.0001801",0.736 ± 0.028 mPa·s
same,viscosity,"308.15 K, x2 = 0.0003254, x1 = 0.0001801",0.737 ± 0.028 mPa·s
same,viscosity,"308.15 K, x2 = 0.0003796, x1 = 0.0001801",0.737 ± 0.028 mPa·s
same,viscosity,"308.15 K, x2 = 0.0004338, x1 = 0.0001801",0.738 ± 0.028 mPa·s
same,viscosity,"308.15 K, x2 = 0.000488, x1 = 0.0001801",0.739 ± 0.028 mPa·s
same,viscosity,"308.15 K, x2 = 0.0005422, x1 = 0.0001801",0.739 ± 0.028 mPa·s
same,viscosity,"313.15 K, x2 = 5.424e-05, x1 = 0.0001802",0.668 ± 0.028 mPa·s
same,viscosity,"313.15 K, x2 = 0.0001085, x1 = 0.0001801",0.668 ± 0.028 mPa·s
same,viscosity,"313.15 K, x2 = 0.0001627, x1 = 0.0001801",0.669 ± 0.028 mPa·s
same,viscosity,"313.15 K, x2 = 0.0002169, x1 = 0.0001801",0.669 ± 0.028 mPa·s
same,viscosity,"313.15 K, x2 = 0.0002712, x1 = 0.0001801",0.669 ± 0.028 mPa·s
same,viscosity,"313.15 K, x2 = 0.0003254, x1 = 0.0001801",0.67 ± 0.028 mPa·s
same,viscosity,"313.15 K, x2 = 0.0003796, x1 = 0.0001801",0.67 ± 0.028 mPa·s
same,viscosity,"313.15 K, x2 = 0.0004338, x1 = 0.0001801",0.67 ± 0.028 mPa·s
same,viscosity,"313.15 K, x2 = 0.000488, x1 = 0.0001801",0.671 ± 0.028 mPa·s
same,viscosity,"313.15 K, x2 = 0.0005422, x1 = 0.0001801",0.671 ± 0.028 mPa·s
same,viscosity,"318.15 K, x2 = 5.424e-05, x1 = 0.0001802",0.62 ± 0.027 mPa·s
same,viscosity,"318.15 K, x2 = 0.0001085, x1 = 0.0001801",0.621 ± 0.027 mPa·s
same,viscosity,"318.15 K, x2 = 0.0001627, x1 = 0.0001801",0.621 ± 0.027 mPa·s
same,viscosity,"318.15 K, x2 = 0.0002169, x1 = 0.0001801",0.622 ± 0.027 mPa·s
same,viscosity,"318.15 K, x2 = 0.0002712, x1 = 0.0001801",0.622 ± 0.027 mPa·s
same,viscosity,"318.15 K, x2 = 0.0003254, x1 = 0.0001801",0.622 ± 0.027 mPa·s
same,viscosity,"318.15 K, x2 = 0.0003796, x1 = 0.0001801",0.622 ± 0.027 mPa·s
same,viscosity,"318.15 K, x2 = 0.0004338, x1 = 0.0001801",0.622 ± 0.027 mPa·s
same,viscosity,"318.15 K, x2 = 0.000488, x1 = 0.0001801",0.623 ± 0.027 mPa·s
same,viscosity,"318.15 K, x2 = 0.0005422, x1 = 0.0001801",0.623 ± 0.027 mPa·s
